Results published in ChEMBL document CHEMBL1201862, “PubChem BioAssay data set” (2004).
Active and inactive are the calls of the source.

Legend:
[1] = Luminescence Cell-Based Dose Retest to Confirm Inhibitors of Cancer Stem Cells. [Related pubchem assays (depositor defined):AID2717, AID2721]; type: functional; conditions: Homo sapiens
[2] = microbe, parasite or virus in culture; type: functional; conditions: Mycobacterium tuberculosis
[3] = ZM109 Env clade C HIV-1 fusion inhibitors, dose response, HeLa effector, CEM target cells, luciferase, cherry-pick (AID 652058); type: functional, cell-based
[4] = inhibitors of HIV Env-driven cell fusion, dose response, cherry-pick (AID 652057); type: functional, cell-based
[5] = inhibitors of clade B AD8 Env fusion, dose response, cell-based, cherry-pick (AID 652062); type: functional;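 note: luciferase signal from cell-cell fusion driven by HIV-1 clade B AD8 Env; potency is for inhibitors of fusion seen as a drop in luminescence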
[6] = biological target: T1, Ubiquitin-conjugating enzyme E2 N (Homo sapiens, UniProt P61088); type: functional;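 note: Dose-response confirmation in a TR-FRET assay detecting UBC13-driven polyubiquitin chain formation, inhibition measured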
T1 sequence (P61088 whole entry): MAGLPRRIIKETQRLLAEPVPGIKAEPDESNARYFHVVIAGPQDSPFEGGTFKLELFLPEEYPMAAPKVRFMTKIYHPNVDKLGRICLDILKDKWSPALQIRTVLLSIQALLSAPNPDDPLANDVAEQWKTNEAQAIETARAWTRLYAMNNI

Cytochrome P450 2C19 = Cytochrome P450 2C19 (Homo sapiens, UniProt P33261); experiment: Cytochrome panel assay with activity outcomes. Panel member name: p450-cyp2c19 Compounds with AC50 equal or less than 10 uM are considered active; type: functional; conditions: read-out: AC50
Cytochrome P450 2C9 = Cytochrome P450 2C9 (Homo sapiens, UniProt P11712)
Cytochrome P450 1A2 = biological target: T2, Cytochrome P450 1A2 (Homo sapiens, UniProt P05177);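 note: PubChem cytochrome P450 panel assay, CYP1A2 panel member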
T2 sequence (P05177 whole entry): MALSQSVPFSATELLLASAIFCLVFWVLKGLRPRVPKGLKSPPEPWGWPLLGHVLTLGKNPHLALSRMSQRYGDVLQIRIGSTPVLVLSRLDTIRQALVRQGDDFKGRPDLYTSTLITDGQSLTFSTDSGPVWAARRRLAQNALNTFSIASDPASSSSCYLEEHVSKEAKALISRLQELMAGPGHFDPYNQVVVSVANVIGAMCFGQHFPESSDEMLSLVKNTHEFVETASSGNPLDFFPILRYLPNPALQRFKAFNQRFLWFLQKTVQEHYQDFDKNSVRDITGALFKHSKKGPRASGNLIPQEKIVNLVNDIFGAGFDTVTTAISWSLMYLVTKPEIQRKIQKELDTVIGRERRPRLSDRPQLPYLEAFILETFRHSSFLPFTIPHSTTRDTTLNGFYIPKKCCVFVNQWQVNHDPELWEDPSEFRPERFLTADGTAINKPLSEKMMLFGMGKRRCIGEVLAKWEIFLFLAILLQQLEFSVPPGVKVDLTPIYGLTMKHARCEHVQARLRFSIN

[7] = inhibitors of intracellular T. cruzi replication, confirmation, NIH3T3 host cells, beta-gal luminescence (AID 2044); type: functional, cell-based;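 note: intracellular parasites grown in NIH/3T3 mouse fibroblasts as host cells; luminescent beta-galactosidase reporter signal from transgenic T. cruzi replicating inside host cells; inhibitors lower the luminescence signal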
[8] = biological target: T3, Short transient receptor potential channel 4 (Mus musculus, UniProt Q9QUQ5); experiment: mouse TRPC4 channel inhibitors, dose response, cell-based, HEK293 TRPC4/mu-opioid, Fluo-4 calcium (AID 434942); type: functional;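 note: potency of inhibitors blocking the TRPC4 calcium response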
T3 sequence (Q9QUQ5 whole entry): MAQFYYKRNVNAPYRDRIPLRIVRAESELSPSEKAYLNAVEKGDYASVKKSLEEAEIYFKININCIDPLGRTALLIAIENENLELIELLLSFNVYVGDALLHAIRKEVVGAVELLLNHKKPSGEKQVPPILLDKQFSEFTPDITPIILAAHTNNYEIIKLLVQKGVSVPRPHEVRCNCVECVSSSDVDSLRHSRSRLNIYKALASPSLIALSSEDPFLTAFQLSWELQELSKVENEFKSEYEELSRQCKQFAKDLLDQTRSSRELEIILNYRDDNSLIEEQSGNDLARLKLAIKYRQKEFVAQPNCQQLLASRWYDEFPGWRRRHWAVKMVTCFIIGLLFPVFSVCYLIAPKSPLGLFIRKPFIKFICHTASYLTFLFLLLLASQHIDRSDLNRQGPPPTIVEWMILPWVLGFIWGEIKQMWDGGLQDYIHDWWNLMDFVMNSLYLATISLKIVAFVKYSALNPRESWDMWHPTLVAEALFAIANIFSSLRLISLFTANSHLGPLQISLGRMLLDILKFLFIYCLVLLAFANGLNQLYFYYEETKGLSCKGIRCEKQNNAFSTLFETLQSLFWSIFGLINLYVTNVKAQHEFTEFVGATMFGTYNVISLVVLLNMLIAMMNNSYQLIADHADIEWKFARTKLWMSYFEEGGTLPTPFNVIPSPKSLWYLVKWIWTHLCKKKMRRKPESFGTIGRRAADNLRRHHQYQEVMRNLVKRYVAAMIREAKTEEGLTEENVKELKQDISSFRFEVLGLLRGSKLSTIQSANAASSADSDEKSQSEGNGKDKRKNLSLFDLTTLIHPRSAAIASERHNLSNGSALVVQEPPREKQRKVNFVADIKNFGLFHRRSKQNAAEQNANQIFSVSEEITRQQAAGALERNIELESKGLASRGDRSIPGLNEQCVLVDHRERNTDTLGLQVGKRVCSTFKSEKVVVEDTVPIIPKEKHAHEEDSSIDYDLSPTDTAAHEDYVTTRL

[9] = cytotoxicity toward NIH3T3 fibroblasts, dose response, counter-screen, cell-based, ATP luminescence, mouse fibroblasts (AID 2010); type: functional;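 note: cells exposed to compound for about 90 hours before reading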
[10] = Luminescence Cell-Based Dose Confirmation HTS to Identify Activators of 5'UTR Stem-Loop Driven Alpha-Synuclein mRNA Translation in H4 Neuroglioblastoma Cells. [Related pubchem assays: 1829 (Project Summary), 1814 (Primary HTS)]; type: functional
Cytochrome P450 2D6 = Cytochrome P450 2D6 (Homo sapiens, UniProt P10635);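 note: CYP2D6 member of a cytochrome P450 panel assay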
[11] = Luminescence Cell-Based Dose Response HTS to Identify Activators of Luciferase Translation or Activity in H4 […] Cells. [Related pubchem assays: 1829 (Project Summary), 1814 (Primary HTS)]; type: functional
H4 = experiment: Luminescence Cell-Based Dose Response HTS to Identify Activators of 5'UTR Stem-Loop Driven Prion Protein mRNA Translation in H4 Neuroglioblastoma Cells. [Related pubchem assays: 1829 (Project Summary), 1814 (Primary HTS)]; type: functional; conditions: Homo sapiens
Cytochrome P450 3A4 = Cytochrome P450 3A4 (Homo sapiens, UniProt P08684);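 note: CYP3A4 tested as one member of a cytochrome P450 panel screen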
Large T antigen = Large T antigen (Simian virus 40, UniProt P03070); type: functional, Betapolyomavirus macacae;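 note: Confirmatory-stage PubChem screen for compounds that inhibit SV40 T antigen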
[12] = system: Streptococcus sp. 'group A'; experiment: growth inhibition of control SK(-) GAS strain, dose response, counter-screen for streptokinase expression inhibitor project, luminescence, kanamycin, BacTiterGlo, confirmation (AID 1900); type: functional, organism-based
Streptococcus = experiment: Group A Streptococcus viability loss, dose response, counter-screen for streptokinase expression inhibitor project, luminescence, BacTiterGlo (AID 1915); type: functional, organism-based;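 note: potency for reduction of bacterial viability or growth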
INS1 = experiment: beta cell apoptosis inhibitors, cytokine rescue, dose response, luminescence, retest (AID 449756); type: functional, cell-based; conditions: Rattus norvegicus, INS1;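 note: cell death triggered by IL-1 beta plus TNF-alpha plus IFN-gamma mixture; protective hits raise ATP signal compared with cytokine alone wells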
Streptokinase A = biological target: T4, Streptokinase A (Streptococcus pyogenes serotype M1, UniProt P10520); experiment: S. pyogenes streptokinase expression inhibitors, potency, dose response, plasminogen activation absorbance, OD405 (AID 1914); type: functional, Streptococcus pyogenes M1 GAS;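 note: secreted streptokinase activity via plasminogen activation per viability signal from cell pellet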
T4 sequence (P10520 whole entry): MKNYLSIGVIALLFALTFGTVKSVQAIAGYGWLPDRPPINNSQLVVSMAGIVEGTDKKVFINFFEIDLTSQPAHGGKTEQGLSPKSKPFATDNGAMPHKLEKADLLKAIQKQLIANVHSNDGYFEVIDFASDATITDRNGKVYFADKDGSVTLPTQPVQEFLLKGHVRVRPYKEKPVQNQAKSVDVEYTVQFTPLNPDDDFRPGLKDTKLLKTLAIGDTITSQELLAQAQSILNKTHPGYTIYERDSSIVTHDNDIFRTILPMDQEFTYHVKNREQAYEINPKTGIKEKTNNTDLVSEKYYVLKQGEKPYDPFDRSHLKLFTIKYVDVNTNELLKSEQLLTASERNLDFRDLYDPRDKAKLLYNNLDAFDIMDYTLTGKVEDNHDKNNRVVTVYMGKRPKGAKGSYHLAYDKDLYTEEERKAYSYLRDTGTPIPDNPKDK

[13] = Luminescence Cell-Based Dose Response HTS to Identify Inhibitors of 5'UTR Stem-Loop Driven Prion Protein mRNA Translation in H4 Neuroglioblastoma Cells. [Related pubchem assays: 1827 (Project Summary), 1813 (Primary HTS)]; type: functional
[14] = inhibitors of SNCA 5'UTR-driven reporter translation, confirmation, H4 neuroglioma cells, luminescence (AID 1988); type: functional, cell-based
[15] = inhibitors of firefly luciferase expression or activity, dose response, H4 neuroglioma cells, luminescence (AID 1990); type: functional, cell-based
[16] = biological target: T5, DNA repair protein RAD52 homolog (Homo sapiens, UniProt P43351); type: functional, biochemical
T5 sequence (P43351 whole entry): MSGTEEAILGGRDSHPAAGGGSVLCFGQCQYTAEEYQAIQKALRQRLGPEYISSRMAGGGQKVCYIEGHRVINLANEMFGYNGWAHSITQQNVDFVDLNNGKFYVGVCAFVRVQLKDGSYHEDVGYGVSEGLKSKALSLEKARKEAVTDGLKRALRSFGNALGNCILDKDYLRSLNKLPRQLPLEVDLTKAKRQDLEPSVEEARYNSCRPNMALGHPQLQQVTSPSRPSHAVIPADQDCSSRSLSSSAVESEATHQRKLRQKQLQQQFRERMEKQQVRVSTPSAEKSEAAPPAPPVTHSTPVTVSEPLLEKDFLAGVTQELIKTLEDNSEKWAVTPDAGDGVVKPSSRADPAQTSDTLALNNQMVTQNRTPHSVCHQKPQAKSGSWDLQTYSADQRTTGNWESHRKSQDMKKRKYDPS

[17] = P. falciparum Dd2 growth inhibitors, dose response, SYBR Green, cherry-picked samples (AID 1159567); type: functional, cell-based
[18] = HepG2 cell cytotoxicity, dose response, cytotoxicity control, plate reader, dry powder samples (AID 1159569); type: functional, cell-based;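 note: inhibitor potency with signal falling toward the positive control level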
[19] = P. falciparum 3D7-ScDHODH growth inhibitors, dose response, SYBR Green, dry powder samples (AID 1159570); type: functional, cell-based;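 note: parasite growth measured after 72 hours of compound exposure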
[20] = P. falciparum Dd2 growth inhibitors, dose response, SYBR Green, dry powder samples (AID 1159566); type: functional, cell-based;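 note: potency for growth inhibition with lower SYBR green DNA signal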
[21] = P. falciparum ATP4 D1247Y mutant growth inhibitors, dose response, NITD609-resistant line, SYBR Green, dry powder (AID 1159571); type: functional, cell-based;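 note: parasites synchronized at ring stage by sorbitol before testing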

Cytochrome P450 2C19, sequence (P33261 whole entry): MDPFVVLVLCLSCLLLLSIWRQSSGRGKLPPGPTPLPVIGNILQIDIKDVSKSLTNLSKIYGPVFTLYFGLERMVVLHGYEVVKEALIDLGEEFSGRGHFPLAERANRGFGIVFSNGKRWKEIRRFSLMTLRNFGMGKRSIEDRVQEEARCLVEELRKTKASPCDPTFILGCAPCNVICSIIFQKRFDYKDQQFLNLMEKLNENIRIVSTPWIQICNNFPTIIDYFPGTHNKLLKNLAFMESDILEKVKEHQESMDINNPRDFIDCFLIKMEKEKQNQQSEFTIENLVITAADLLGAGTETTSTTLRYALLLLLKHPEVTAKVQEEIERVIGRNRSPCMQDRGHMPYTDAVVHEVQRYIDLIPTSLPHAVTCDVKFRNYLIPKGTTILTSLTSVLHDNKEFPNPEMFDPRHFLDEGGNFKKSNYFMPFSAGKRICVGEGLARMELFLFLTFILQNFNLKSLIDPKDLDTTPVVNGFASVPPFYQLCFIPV
Cytochrome P450 2C9, sequence (P11712 whole entry): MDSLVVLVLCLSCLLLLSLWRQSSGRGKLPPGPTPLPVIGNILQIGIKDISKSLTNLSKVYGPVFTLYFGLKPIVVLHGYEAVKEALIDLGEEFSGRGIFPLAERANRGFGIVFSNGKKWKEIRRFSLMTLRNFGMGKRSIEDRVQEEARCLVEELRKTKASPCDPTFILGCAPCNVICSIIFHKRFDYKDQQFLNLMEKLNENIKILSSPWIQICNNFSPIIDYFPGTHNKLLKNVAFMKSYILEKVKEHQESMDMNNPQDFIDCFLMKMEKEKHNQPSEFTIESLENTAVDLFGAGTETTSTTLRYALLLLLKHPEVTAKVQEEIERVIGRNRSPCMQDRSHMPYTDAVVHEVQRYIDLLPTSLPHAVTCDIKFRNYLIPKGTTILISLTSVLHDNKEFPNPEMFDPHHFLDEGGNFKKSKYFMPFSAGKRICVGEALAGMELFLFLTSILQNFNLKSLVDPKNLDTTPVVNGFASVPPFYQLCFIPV
Large T antigen, sequence (P03070 whole entry): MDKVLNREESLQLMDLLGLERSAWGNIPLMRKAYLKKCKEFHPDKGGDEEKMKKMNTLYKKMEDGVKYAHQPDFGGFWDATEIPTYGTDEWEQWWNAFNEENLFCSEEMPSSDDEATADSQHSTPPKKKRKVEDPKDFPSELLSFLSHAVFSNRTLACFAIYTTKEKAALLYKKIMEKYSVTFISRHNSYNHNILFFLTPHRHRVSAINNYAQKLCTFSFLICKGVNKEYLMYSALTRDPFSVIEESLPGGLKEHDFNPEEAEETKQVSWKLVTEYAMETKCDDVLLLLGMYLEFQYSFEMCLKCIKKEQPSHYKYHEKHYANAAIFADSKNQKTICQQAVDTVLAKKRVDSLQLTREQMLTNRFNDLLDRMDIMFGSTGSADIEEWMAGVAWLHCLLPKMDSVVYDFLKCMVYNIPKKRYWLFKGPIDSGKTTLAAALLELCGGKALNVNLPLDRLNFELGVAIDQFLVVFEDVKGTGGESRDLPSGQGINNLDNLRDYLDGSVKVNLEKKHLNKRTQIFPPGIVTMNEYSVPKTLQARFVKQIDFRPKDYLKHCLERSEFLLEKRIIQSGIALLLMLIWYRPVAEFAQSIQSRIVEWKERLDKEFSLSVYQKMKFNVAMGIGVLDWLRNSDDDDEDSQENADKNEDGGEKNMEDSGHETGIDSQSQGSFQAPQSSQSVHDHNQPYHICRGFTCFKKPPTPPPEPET
Cytochrome P450 2D6, sequence (P10635 whole entry): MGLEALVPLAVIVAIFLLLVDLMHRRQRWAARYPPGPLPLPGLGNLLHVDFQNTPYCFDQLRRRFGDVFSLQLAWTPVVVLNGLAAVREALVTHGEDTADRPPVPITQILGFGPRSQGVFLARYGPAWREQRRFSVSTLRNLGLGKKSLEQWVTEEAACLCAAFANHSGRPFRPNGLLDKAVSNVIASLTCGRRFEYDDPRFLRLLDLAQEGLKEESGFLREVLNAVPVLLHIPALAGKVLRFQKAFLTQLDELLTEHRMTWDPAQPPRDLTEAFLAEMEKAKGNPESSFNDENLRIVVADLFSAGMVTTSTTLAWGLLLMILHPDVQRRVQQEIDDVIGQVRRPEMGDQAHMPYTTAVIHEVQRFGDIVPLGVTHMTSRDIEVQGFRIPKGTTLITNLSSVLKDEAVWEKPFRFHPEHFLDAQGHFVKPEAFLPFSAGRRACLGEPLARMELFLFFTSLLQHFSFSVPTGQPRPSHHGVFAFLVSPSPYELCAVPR
Cytochrome P450 3A4, sequence (P08684 whole entry): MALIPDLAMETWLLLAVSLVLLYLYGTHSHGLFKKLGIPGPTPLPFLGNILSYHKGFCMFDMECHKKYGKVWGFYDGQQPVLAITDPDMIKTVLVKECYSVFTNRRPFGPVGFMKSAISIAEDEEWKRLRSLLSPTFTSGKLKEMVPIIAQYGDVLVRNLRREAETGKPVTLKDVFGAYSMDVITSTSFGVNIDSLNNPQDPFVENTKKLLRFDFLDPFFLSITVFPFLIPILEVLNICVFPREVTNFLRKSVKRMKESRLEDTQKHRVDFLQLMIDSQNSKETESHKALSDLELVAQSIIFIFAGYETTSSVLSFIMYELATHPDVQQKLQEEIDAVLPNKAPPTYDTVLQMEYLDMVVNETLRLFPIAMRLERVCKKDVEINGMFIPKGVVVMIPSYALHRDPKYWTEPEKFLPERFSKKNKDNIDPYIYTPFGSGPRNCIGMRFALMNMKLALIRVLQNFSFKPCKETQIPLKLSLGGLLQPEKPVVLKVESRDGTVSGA

SMILES: c1ccc(CN2CCN(c3nc(NCc4ccco4)c4ccccc4n3)CC2)cc1
- AC50 [1]: 3.34 µM (active)
- CC50 [2]: 24.4 µM (active)

SMILES: C[C@H](CO)N1C[C@H](C)[C@H](CN(C)S(=O)(=O)c2ccc(F)cc2)Oc2ncc(/C=C/c3ccccc3)cc2C1=O
- AC50 [3]: 13.9 µM (active)
- AC50 [4]: 16.5 µM (active)
- AC50 [5]: 28.3 µM (active)

SMILES: O=C(CCCCCN1C(=O)c2ccccc2C1=O)NCCc1nc2ccccc2[nH]1
- IC50 [6]: > 20 µM (inactive)

SMILES: O=C(C1CCN(S(=O)(=O)c2cccc3cccnc23)CC1)N1CCN(c2ccccn2)CC1
- AC50 (Cytochrome P450 2C19): 7.08 µM (inconclusive)
- AC50 (Cytochrome P450 2C9): inconclusive
- AC50 (Cytochrome P450 1A2): 20 µM (inconclusive)

SMILES: CCOC(=O)C(C)Sc1nc(-c2cccs2)ccc1C#N (configuration not stated)
- CC50 [2]: 38.9 µM (active)

SMILES: Cc1cc(-c2cn3ccccc3n2)c(C)n1-c1ccccc1
- EC50 [7]: 1.43 µM (active)
- EC50 [8]: 7.5 µM (active)
- EC50 [9]: > 30 µM (not active)

SMILES: CN1[C@@H]2CC[C@H]1CC(O)C2 (some centres not stated)
- AC50 (Cytochrome P450 2C9): inconclusive

SMILES: CC(C)(CCc1nc2ccccc2[nH]1)C(=O)O
- AC50 (Cytochrome P450 2C9): inconclusive

SMILES: CCOc1ccc2nc(SCc3ccccc3C#N)sc2c1
- EC50 [10]: 1.1 µM (active)
- AC50 (Cytochrome P450 2D6): 17.8 µM (inconclusive)
- AC50 (Cytochrome P450 2C9): inconclusive
- EC50 [11]: 0.884 µM (active)
- EC50 (H4): 0.7 µM (active)
- AC50 (Cytochrome P450 3A4): 12.6 µM (inconclusive)

SMILES: CC(C)(C)CN1CCNC[C@H]1Cc1cccc2ccccc12
- IC50 [6]: > 20 µM (inactive)

SMILES: O/N=C/c1ccccc1Oc1ccc(Cl)cc1
- EC50 [8]: 6.68 µM (active)

SMILES: COc1cnc(-c2ccccn2)nc1Oc1ccc(Cl)c2ccccc12
- IC50 (Large T antigen): 7.48 µM (active)
- EC50 [12]: 1.77 µM (active)
- EC50 (Streptococcus): 20.1 µM (inconclusive)
- AC50 (INS1): 4.86 µM (active)
- CC50 [2]: 16.9 µM (active)
- EC50 (Streptokinase A): > 150 µM (not active)

SMILES: O=C(CSc1nc2nncc-2c(O)n1-c1ccccc1Br)NCc1ccccc1Cl
- EC50 [8]: 2.99 µM (active)

SMILES: CN(C)CC/C=C1\c2ccc(F)cc2Sc2cc(F)c(Cl)cc21
- EC50 [13]: 45.6 µM (active)
- EC50 [14]: 12.9 µM (active)
- EC50 [15]: > 120 µM (not active)
- AC50 [16]: 9.75 µM (active)

SMILES: Cc1ccc(S(=O)(=O)O/N=C2/CCCc3occc32)cc1
- AC50 (Cytochrome P450 2C19): 35.5 µM (inconclusive)
- AC50 (Cytochrome P450 2C9): inconclusive

SMILES: Cc1cc(C)c2nc(NCCCNC(=S)NCCCN(C)C)c(C#N)cc2c1
- IC50 [6]: > 20 µM (inactive)
- AC50 [16]: 7.63 µM (active)

SMILES: Cc1cccc(C)c1N1CCc2c[nH]nc21
- EC50 [8]: 7.5 µM (active)

SMILES: COc1ccc2c3c(n(C)c2c1)[C@@H](CO)N(C(=O)Nc1ccc(F)cc1)CC31CCN(Cc2cccnc2)CC1
- AC50 [17]: 0.819 µM (active)
- AC50 [18]: 31.7 µM (active)
- AC50 [19]: 1.37 µM (active)
- AC50 [20]: 0.727 µM (active)
- AC50 [21]: 1.12 µM (active)

SMILES: Fc1cccc(Cl)c1CSc1nc[nH]n1
- AC50 (Cytochrome P450 2C19): 39.8 µM (inconclusive)
- AC50 (Cytochrome P450 2C9): inconclusive
- AC50 (Cytochrome P450 1A2): 10 µM (inconclusive)
